Measurements taken from ChEMBL document CHEMBL2429834, “Potent histone deacetylase inhibitors derived from 4-(aminomethyl)-N-hydroxybenzamide with high selectivity for the HDAC6 isoform” (J Med Chem, 2013).
In brackets after ≈: the same amount, converted by molar mass.

Key:
[1] = biological target: T1, Histone deacetylase 11 (Homo sapiens, UniProt Q96DB2); experiment: Inhibition of full length N-terminal GST-tagged recombinant human HDAC11 expressed in baculovirus using Arg-His-Lys-Lys (Ac) as substrate after 1 hr by fluorescence plate reader analysis
T1 sequence (Q96DB2 whole entry): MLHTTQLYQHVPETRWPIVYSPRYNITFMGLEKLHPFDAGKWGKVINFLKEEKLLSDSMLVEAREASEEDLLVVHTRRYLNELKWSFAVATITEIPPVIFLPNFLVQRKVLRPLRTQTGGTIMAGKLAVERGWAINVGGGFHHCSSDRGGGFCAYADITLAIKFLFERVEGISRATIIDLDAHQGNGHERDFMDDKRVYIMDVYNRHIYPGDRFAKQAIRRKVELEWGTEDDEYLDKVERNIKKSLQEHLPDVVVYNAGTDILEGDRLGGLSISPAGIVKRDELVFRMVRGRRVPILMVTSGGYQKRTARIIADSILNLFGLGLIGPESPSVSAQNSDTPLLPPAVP

[2] = biological target: T2, Histone deacetylase 8 (Homo sapiens, UniProt Q9BY41); experiment: Inhibition of full length C-terminal His6x-tagged recombinant human HDAC8 expressed in baculovirus using Arg-His-Lys(Ac)-Lys(Ac) as substrate after 1 hr by fluorescence plate reader analysis
T2 sequence (Q9BY41 whole entry): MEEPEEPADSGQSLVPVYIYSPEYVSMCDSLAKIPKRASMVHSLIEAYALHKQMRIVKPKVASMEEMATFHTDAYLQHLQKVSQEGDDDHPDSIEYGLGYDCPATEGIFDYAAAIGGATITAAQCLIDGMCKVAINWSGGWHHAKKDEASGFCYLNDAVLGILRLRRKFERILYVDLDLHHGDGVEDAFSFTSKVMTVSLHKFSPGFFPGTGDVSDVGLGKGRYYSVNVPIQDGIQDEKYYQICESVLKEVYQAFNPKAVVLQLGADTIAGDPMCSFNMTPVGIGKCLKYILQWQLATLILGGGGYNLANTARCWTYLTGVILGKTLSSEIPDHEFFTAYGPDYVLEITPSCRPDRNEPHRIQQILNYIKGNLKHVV

[3] = biological target: T3, Histone deacetylase 7 (Homo sapiens, UniProt Q8WUI4); experiment: Inhibition of N-terminal GST-tagged recombinant human HDAC7 (518) expressed in baculovirus using acetyl-Lys(trifluoroacetyl)-AMC as substrate after 1 hr by fluorescence plate reader analysis
T3 sequence (Q8WUI4 whole entry): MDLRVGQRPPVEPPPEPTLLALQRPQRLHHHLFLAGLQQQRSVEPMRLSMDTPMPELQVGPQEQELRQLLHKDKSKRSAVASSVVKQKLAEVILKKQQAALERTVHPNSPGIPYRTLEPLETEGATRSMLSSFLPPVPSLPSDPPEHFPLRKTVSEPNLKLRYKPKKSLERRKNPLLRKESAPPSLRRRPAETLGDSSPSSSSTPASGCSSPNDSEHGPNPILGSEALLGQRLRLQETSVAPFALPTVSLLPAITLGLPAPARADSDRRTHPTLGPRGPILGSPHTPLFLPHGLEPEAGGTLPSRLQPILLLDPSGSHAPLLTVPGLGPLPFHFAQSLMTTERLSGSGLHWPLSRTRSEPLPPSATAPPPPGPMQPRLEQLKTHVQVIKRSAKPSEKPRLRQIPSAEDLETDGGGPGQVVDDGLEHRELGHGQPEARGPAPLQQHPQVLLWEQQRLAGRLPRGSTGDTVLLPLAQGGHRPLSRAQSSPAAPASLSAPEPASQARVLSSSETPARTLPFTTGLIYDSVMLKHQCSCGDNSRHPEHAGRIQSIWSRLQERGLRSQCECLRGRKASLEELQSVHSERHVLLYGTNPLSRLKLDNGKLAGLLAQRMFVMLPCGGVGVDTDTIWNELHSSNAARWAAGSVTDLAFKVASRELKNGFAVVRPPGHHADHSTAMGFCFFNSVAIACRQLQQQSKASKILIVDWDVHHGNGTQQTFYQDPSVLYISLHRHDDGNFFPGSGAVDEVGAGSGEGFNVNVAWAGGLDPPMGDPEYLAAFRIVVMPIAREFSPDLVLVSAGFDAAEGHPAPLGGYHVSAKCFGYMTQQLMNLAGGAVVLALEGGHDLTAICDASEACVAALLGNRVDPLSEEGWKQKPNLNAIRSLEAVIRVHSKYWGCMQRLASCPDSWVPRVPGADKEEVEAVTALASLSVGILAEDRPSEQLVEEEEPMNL

[4] = biological target: Histone deacetylase 5 (Homo sapiens, UniProt Q9UQL6); experiment: Inhibition of C-terminal His6x-tagged recombinant human HDAC5 (657 to 1123) expressed in baculovirus using acetyl-Lys(trifluoroacetyl)-AMC as substrate after 1 hr by fluorescence plate reader analysis
Histone deacetylase 5, sequence (Q9UQL6 whole entry): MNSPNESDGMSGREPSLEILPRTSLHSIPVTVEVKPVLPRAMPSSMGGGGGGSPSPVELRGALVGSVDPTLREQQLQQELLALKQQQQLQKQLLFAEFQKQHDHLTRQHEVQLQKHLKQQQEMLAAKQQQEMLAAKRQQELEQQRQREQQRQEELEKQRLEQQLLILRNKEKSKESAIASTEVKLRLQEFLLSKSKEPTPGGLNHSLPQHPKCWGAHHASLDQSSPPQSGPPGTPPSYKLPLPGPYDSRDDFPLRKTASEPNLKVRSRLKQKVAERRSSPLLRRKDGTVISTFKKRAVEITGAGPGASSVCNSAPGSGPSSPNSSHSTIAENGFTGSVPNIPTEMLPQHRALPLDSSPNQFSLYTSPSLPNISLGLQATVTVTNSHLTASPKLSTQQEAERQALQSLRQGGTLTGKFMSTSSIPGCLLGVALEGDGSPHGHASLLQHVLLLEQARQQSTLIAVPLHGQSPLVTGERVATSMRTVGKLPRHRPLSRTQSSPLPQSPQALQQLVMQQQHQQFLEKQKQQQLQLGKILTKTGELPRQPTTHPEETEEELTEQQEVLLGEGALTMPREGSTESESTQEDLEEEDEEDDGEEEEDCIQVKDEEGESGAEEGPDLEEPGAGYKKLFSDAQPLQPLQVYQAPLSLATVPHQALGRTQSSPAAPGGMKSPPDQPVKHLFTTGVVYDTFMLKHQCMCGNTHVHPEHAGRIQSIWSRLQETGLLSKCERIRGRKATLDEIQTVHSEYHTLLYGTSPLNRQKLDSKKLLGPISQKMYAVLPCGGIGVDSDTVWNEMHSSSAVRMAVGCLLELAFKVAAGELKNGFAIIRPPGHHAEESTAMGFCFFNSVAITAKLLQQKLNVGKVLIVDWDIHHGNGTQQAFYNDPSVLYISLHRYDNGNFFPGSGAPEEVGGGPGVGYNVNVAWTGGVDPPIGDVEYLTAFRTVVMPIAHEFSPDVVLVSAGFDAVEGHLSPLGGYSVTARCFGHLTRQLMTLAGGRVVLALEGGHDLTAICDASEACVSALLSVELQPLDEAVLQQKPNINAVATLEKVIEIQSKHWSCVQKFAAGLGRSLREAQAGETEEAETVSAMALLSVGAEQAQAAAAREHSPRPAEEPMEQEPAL

[5] = Efflux ratio of permeability in human Caco2 cells at pH 7.4; format: ADME, cell-based; conditions: Caco-2, pH 7.4
[6] = Kinetic solubility of the compound in potassium phosphate buffer at pH 6.8 by turbidometric analysis; format: physicochemical; conditions: read-out: Kinetic_solubility
[7] = Aqueous thermodynamic solubility of the compound in potassium phosphate monobasic buffer at pH 7.5 after 24 hrs by LC-MS analysis; format: physicochemical; conditions: read-out: Therm_solubility
[8] = biological target: 72 kDa type IV collagenase (Homo sapiens) (UniProt P08253); experiment: Inhibition of MMP2 (unknown origin)
72 kDa type IV collagenase (Homo sapiens), sequence (P08253 110-660 limits assumed): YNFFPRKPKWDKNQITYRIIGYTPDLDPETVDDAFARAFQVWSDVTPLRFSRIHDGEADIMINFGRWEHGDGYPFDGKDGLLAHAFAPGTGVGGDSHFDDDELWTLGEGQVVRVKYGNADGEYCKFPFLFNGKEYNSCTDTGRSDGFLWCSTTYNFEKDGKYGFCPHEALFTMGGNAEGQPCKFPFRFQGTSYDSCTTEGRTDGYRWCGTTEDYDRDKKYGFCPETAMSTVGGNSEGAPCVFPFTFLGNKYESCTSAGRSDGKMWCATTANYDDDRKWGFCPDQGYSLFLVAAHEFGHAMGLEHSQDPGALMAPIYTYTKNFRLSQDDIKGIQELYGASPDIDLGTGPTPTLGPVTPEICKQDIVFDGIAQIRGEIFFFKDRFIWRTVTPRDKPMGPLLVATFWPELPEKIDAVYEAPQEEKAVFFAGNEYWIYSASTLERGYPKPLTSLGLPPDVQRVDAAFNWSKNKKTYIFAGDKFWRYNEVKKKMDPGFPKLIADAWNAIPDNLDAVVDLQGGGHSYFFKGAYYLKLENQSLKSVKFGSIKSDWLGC

[9] = biological target: Matrix metalloproteinase-9 (Homo sapiens) (UniProt P14780); experiment: Inhibition of MMP9 (unknown origin)
Matrix metalloproteinase-9 (Homo sapiens), sequence (P14780 whole entry): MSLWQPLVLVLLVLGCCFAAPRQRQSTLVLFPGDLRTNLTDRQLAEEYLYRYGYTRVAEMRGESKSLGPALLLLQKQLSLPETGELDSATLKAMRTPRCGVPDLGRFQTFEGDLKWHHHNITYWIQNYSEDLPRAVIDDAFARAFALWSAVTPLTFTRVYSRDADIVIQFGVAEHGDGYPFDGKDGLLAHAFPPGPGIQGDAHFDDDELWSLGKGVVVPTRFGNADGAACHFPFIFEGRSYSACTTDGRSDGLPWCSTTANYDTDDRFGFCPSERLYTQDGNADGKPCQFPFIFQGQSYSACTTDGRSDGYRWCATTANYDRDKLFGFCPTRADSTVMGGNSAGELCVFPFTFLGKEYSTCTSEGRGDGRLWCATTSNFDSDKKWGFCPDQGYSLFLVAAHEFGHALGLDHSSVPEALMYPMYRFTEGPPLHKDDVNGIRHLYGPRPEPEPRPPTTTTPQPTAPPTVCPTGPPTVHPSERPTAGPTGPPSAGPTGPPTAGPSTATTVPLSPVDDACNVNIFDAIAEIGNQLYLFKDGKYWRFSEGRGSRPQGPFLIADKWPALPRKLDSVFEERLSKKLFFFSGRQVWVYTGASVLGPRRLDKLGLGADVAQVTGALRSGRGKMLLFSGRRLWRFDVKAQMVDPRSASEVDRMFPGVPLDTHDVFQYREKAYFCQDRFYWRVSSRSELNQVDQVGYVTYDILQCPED

[10] = biological target: Histone deacetylase 1 (Homo sapiens, UniProt Q13547); experiment: Inhibition of full length GST-tagged recombinant human HDAC1 expressed in baculovirus using Arg-His-Lys-Lys (Ac) as substrate after 2 hrs by fluorescence plate reader analysis
Histone deacetylase 1, sequence (Q13547 whole entry): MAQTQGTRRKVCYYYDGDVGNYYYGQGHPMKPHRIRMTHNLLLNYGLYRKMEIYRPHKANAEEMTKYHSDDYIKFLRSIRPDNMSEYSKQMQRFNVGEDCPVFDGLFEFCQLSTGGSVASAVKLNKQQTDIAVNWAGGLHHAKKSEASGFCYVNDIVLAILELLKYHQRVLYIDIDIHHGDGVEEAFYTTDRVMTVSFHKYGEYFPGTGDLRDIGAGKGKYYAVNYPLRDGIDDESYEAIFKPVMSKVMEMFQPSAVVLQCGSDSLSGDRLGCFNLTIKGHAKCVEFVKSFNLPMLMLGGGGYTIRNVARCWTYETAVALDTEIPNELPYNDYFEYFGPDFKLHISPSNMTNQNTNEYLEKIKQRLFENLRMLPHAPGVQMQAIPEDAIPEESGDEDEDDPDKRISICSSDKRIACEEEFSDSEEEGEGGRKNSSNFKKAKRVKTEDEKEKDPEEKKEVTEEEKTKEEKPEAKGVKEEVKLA

[11] = species on record: Homo sapiens; experiment: Selectivity ratio of IC50 for full length C-terminal His6x-tagged recombinant human HDAC8 to IC50 for N-terminal GST-tagged recombinant HDAC6 (unknown origin)

Row | SMILES | IC50 [1] | IC50 [2] | IC50 [3] | IC50 [4] | efflux ratio [5] | solubility kinetic [6] | solubility thermodynamic at 24 h [7] | INH [8] | INH [9] | IC50 [10] | Ratio IC50 [11]
1 | Cn1cccc1C(=O)N1CCc2cc(C(=O)NO)ccc2C1 | > 50 µM | 2.1 µM | > 50 µM | > 50 µM | 1.5 | > 200 µM | 2000 µM (≈ 599 µg/mL) | > 100 µM | > 100 µM | 45 µM | 
2 | Cn1cccc1C(=O)N1CCCc2cc(C(=O)NO)ccc2C1 | > 50 µM | 0.89 µM | > 50 µM | > 50 µM |  | > 200 µM |  |  |  | > 50 µM | 40
3 | CC(C)(C)C(=O)N1Cc2ccc(C(=O)NO)cc2C1 | > 50 µM | 1.3 µM | > 50 µM | > 50 µM |  | > 200 µM |  |  |  | > 50 µM | 40
4 | CC(C)(C)C(=O)N1CCc2cc(C(=O)NO)ccc2C1 | > 50 µM | 2.1 µM | > 50 µM | > 50 µM |  | > 200 µM |  |  |  | > 50 µM | 40
5 | Cn1cccc1C(=O)N1Cc2ccc(C(=O)NO)cc2C1 | > 50 µM | 1.3 µM | > 50 µM | > 50 µM |  | > 200 µM |  |  |  | > 50 µM | 40
6 | Cn1cccc1C(=O)NCc1ccc(C(=O)NO)cc1 |  | 0.69 µM | 4.6 µM | 3.3 µM |  | > 200 µM |  |  |  | 5.8 µM | 40
